Experimental data: patent US20090055940A1, “ZEBRAFISH MODEL OF MLL LEUKEMOGENESIS” (priority 2006, published 2009)
Entries after “also recorded” stand apart in the source; their conditions may differ.

How the values were obtained:
[1] = test system: zebrafish mll mRNA (exon 2-intron 2 splice junction); assay: RT-PCR of zebrafish mll transcript splicing after morpholino knockdown; assay type: in vivo; conditions: embryos injected at 1-2 cell stage with 16 ng, products sequenced
Description: (§1) A detailed characterization of the role of wild-type mll in the development of the zebrafish hematopoietic system was also performed. The morpholino knockdown strategy (Paffett-Lugassy et al. (2005) Methods Mol. Med., 105:171-98) was employed to characterize the phenotype of loss of mll and determine whether zebrafish mll depletion is associated with a phenotype resembling that in mammals. […] The construct was obtained from Gene Tools, LLC (Philomath, Oreg.). Target mRNA sequence was 5′-[…]gtaaacaaattctctaaattattgt-3′ (SEQ ID NO: 38; Exon 2 is capitalized; intron 2 is lower case; underline indicates 25-base sequence encompassed by morpholino). The MO E2I2 sequence was 5′-tagagaatttgtttacCTATTGACG-3′ (SEQ ID NO: 39). The normal transcript splicing is shown by the grey lines in FIG. 11A. The aberrant splicing of exon 1 to exon 3 is shown by the black lines in FIG. 11A and the thick black line in FIG. 11A indicates a second form of aberrant splicing due to failure to splice out intron 2. A 2 mM (16 ng/nl) MO E2I2 stock solution was prepared in dH2O and diluted in Danieau Solution to the desired concentration.
Wild type male and female adults were bred, fertilized eggs collected, and 100 embryos at the 1-2 cell stage were injected with 16 ng of MO E2I2. […]

zebrafish embryos = assay: Phenotype of zebrafish embryos after mll depletion (DIC microscopy of live embryos); assay type: in vivo
Description: as §1
Wild type male and female adults were bred, fertilized eggs collected, and 100 embryos at the 1-2 cell stage were injected with 16 ng of MO E2I2. Control uninjected embryos (n=100) and injected embryos were raised in petri dishes in E3 embryo medium (Paffett-Lugassy et al. (2005) Methods Mol. Med., 105:171-98) to the desired age. PTU (1-phenyl-2-thiourea) was applied at 24 hpf as described (Herbomel et al. (2005) Methods Mol. Med., 105:199-214) to inhibit melanin synthesis. To harvest embryos for RNA, 20 embryos were collected in 1.5 ml eppendorf tubes, E3/PTU was removed, embryos were anesthetized with tricaine, tricaine was removed, 100% methanol was added and tubes were placed at −20° C. RNA was prepared using RNeasy (Qiagen) and RT-PCR was performed using SuperScript III One Step kit (Invitrogen) with sense and antisense primers 5′-[…]-3′ (SEQ ID NO: 40) and 5′-[…]-3′ (SEQ ID NO: 41). Knockdown of properly spliced transcript and production of two aberrant transcripts shown in the schematics of FIG. 11B was confirmed by sequencing the products.
DIC images of representative live embryos were taken using Leica DMRBE microscope with 4× objective and captured using Image Pro. […] By 48 hpf, erythroid cells are seen in heart/ventral anterior yolk sac of control (filled black arrow in FIG. 11C). In contrast, erythroid cells are barely visible in morphant (unfilled black arrow), and morphant has smaller eyes (arrow) and persistent hindbrain abnormality (arrow) (FIG. 11C).

[2] = 48 hpf, 16 ng injected, vs un-injected control embryos

“5′-tagagaatttgtttacCTATTGACG-3′ (antisense TAGAGAATTTGTTTACCTATTGACG; all phosphorodiamidate morpholino (PMO)) [MO E2I2]” was tested, and the “effect on mll transcript splicing” value [1] was “effectively disrupted; also recorded: inhibited proper splicing and resulted in production of two different aberrantly spliced mll mRNAs and reduction of the normal transcript”, the “morphant phenotype by 28 hpf” value (zebrafish embryos; 28 hpf, 16 ng injected, vs un-injected control embryos) was “aberrant protrusion at the tip of the head and enlarged hindbrain ventricle” and the “erythroid cells in the heart and at the ventral yolk sac by 48 hpf” value (zebrafish embryos; [2]) was “substantially less erythroid cells”. The “other morphant features (eyes, hindbrain)” value (zebrafish embryos; [2]) was “smaller eyes and a prominent hindbrain abnormality”, the “viability of morphant embryos” value (zebrafish embryos; embryos injected with 16 ng at 1-2 cell stage) was “viable” and the “embryos exhibiting a phenotype that included hematopoietic and neuronal defects, small size, and delayed development” value (zebrafish embryos; of the 100 embryos injected with 16 ng at 1-2 cell stage) was “Approximately 60%”.
